From patent US20160129089A1, “COMBINATION THERAPY” (ANTISENSE THERAPEUTICS LTD, priority 2013, published 2016)
“Also recorded” adds a separate entry of the source. Read-outs that look alike come from different tables or passages of the source. Marks after values point to notes of the source that are not given here.

Experiments:
[1] = human, in vivo, sc
Description: The Phase I trial was a randomized, placebo controlled, double blind study of single ascending doses and multiple doses of ATL1103 in healthy adult male subjects aged between 18 and 45 years. […] Subjects were monitored out to day 35.

[2] = test system: insulin-like growth factor binding protein 3 (IGF-BP3); assay: Phase I trial: exploratory PD, IGF-BP3; type: in vivo, human; settings: for IGF-BP3 % change from pre-dose / IGF-BP3 mean change from pre-dose: Stage B, n=6
Protocol: (§1) As defined in the statistical analysis plan, the effect of ATL1103 on serum IGF-I was assessed as a change in IGF-I levels versus baseline (starting point) readings for those subjects who received treatment (ATL1103). Pre-dose baseline levels of IGF-I were recorded prior to the commencement of dosing and then measured at weekly intervals until the end of the monitoring period. […] Other exploratory objectives of the study investigated the drug's mechanism of action and broader pharmacological profile, including the pharmacodynamic effects on levels of growth hormone binding protein (GHBP), insulin-like growth factor binding protein 3 (IGFBP-3), acid labile subunit of the insulin-like growth factor binding protein complex (ALS), and growth hormone (GH), as well as in vitro mitogenic and apoptotic parameters.

liver IGF-I RNA = assay: Monotherapy and combination mouse study: relative liver IGF-I RNA; type: in vivo, mice; settings: week 3, p=0.001
Description: (§2) The GHr and IGF-I RNA data were statistically analysed using one-way ANOVA followed by Dunnetts test when comparing treated to saline control. The sIGF-I data were statistically analyzed using one-way […] comparisons.

serum IGF-I = assay: Monotherapy and combination mouse study: serum IGF-I; type: in vivo, mice
Description: as §2

[3] = test system: human growth hormone receptor mRNA; assay: Inhibition of human growth hormone receptor mRNA levels by antisense oligonucleotides, quantitative real-time PCR, MCF7 cells; type: cell-based; set-up: concentration or dose not given beside the values; settings: averages from three experiments
[4] = test system: insulin-like growth factor II (IGF-II); assay: Phase I trial: exploratory PD, IGF-II; type: in vivo, human; settings: Stage B, n=6
[5] = human, in vivo
Protocol: (§3) The primary objective of the Phase I trial was to assess the safety, tolerability and pharmacokinetics (pK) of ATL1103.
(§4) The Phase I trial was a randomized, placebo controlled, double blind study of single ascending doses and multiple doses of ATL1103 in healthy adult male subjects aged between 18 and 45 years. In the single ascending dose stage of the trial, 24 subjects were administered four dose levels of ATL1103 as a single injection starting at 25 mg and escalating to 75, 250 and 400 mg or placebo. The multiple dose stage was undertaken in 12 subjects, 8 who were to receive six subcutaneous doses of 250 mg of ATL1103 and 4 subjects who received placebo administered on days 1, 3, 5, 7, 14 and 21. Subjects were monitored out to day 35.

[6] = test system: serum insulin like growth factor I (IGF-I); assay: Phase II trial in patients with acromegaly: serum IGF-I reduction; type: in vivo, human
Description: The primary endpoints or main purposes of the trial were (i) to evaluate the safety and tolerability of ATL1103 in patients with acromegaly, and (ii) to evaluate the single dose and multiple dose pharmacokinetic profiles of ATL1103 via the subcutaneous route in patients with acromegaly.

IGF-I = assay: Phase I trial: pharmacodynamic effect on serum IGF-I levels; type: in vivo, human; settings: for Serum IGF-I change from pre-dose, Mean ± SD / Serum IGF-I % change from pre-dose: n=6
Description: A secondary objective of this study was to obtain data on the pharmacodynamic effects of ATL1103 on the IGF-I levels in the blood of the trial subjects. Reduction of increased levels of serum IGF-I to normal is the therapeutic endpoint in the treatment of the growth disorder acromegaly, and reducing the effects of IGF-I has a potential role in the treatment of diabetic retinopathy, nephropathy and certain forms of cancer.
as §1

growth hormone (GH) = assay: Phase I trial: exploratory PD, growth hormone levels; type: in vivo, human; settings: listed as ATL1103
Protocol: as §1

liver GHr RNA = assay: Monotherapy and combination mouse study: relative liver GHR RNA; type: in vivo, mice; settings: week 3, p=0.001
Description: as §2

[7] = Phase I trial: safety and tolerability of subcutaneous ATL1103 in healthy adult male subjects
Protocol: as §3, §4

[8] = test system: insulin-like growth factor acid-labile subunit (ALS); assay: Phase I trial: exploratory PD, ALS; type: in vivo, human; settings: for ALS % change from pre-dose / ALS mean change from pre-dose: Stage B, n=6
Protocol: as §1

[9] = test system: growth hormone binding protein (GHBP); assay: Phase I trial: exploratory PD, circulating GHBP; type: in vivo, human; settings: for GHBP % change from pre-dose / GHBP mean change from pre-dose: Stage B, n=6
Protocol: as §1

[10] = ATL1103 12 mg/kg, 3 times in first week then 2 times weekly
[11] = ATL1103 25 mg/kg, 2 times weekly, compared to saline control

In the case of “tcagggcattctttccattc (TCAGGGCATTCTTTCCATTC; chemistry not given here) [ISIS 227452]”, the AUClast ([1]; 25 mg) is reported as 3711 ± 822 ng·h/mL, the Cmax ([1]; 25 mg) is reported as 466 ± 136 ng/mL and the Tmax ([1]; 25 mg) is reported as 3.25 ± 0.5 h. The AUClast ([1]; 75 mg) was 21342 ± 4755 ng·h/mL, the Cmax ([1]; 75 mg) was 3139 ± 1576 ng/mL and the Tmax ([1]; 75 mg) was 3.25 ± 0.96 h. It also gave an AUClast ([1]; 250 mg) of 88942 ± 11295 ng·h/mL, a Cmax ([1]; 250 mg) of 12383 ± 3000 ng/mL and a Tmax ([1]; 250 mg) of 2.5 ± 1.29 h. For the same substance, the AUClast ([1]; 400 mg) was 151123 ± 29434 ng·h/mL, the Cmax ([1]; 400 mg) was 14343 ± 2823 ng/mL and the Tmax ([1]; 400 mg) was 3.25 ± 0.96 h. The “effect on IGFBP-3” value ([2]; Phase I multiple dose stage) was “significantly reduced”, the “IGF-BP3 % change from pre-dose” value ([2]; Day 7) was “(−10%)” and the “IGF-BP3 mean change from pre-dose” value ([2]; Day 7) was −310.5** ng/ml. For the same substance, the “IGF-BP3 % change from pre-dose” value ([2]; Day 21) was “(−8%)”, the “IGF-BP3 mean change from pre-dose” value ([2]; Day 21) was −228.3* ng/ml and the “IGF-BP3 % change from pre-dose” value ([2]; Day 28) was “(−5%)”. For the same substance, the “IGF-BP3 mean change from pre-dose” value ([2]; Day 28) was -160.5 ng/mL, the “reduction of liver IGF-I RNA” value (liver IGF-I RNA; [10]) was 64.3% and the “reduction of liver IGF-I RNA” value (liver IGF-I RNA; [11]) was 76.2%. For the same substance, the “reduction of sIGF-I” value (serum IGF-I; ATL1103 25 mg/kg 2 times weekly monotherapy, week 1, compared to baseline control levels, p<0.013) was 25%, the “reduction of sIGF-I” value (serum IGF-I; ATL1103 25 mg/kg, 2 times weekly, week 1, compared to control saline, p=0.0070) was 36.5% and the “reduction of sIGF-I” value (serum IGF-I; ATL1103 25 mg/kg, 2 times weekly, week 2, compared to control saline, p=0.004) was 41.5%. For the same substance, the “reduction of serum IGF-I” value (serum IGF-I; ATL1103 25 mg/kg, 2 times weekly, week 3, compared to saline control, p=0.003) was 44.5%, the “% INHIB (inhibitory effect on hGHR mRNA levels)” value [3] was 79% and the “IGF-II % change from pre-dose” value ([4]; Day 7) was “(−14%)”. The “IGF-II mean change from pre-dose” value ([4]; Day 7) was −101.8*** ng/ml, the “IGF-II % change from pre-dose” value ([4]; Day 21) was “(−8%)” and the “IGF-II mean change from pre-dose” value ([4]; Day 21) was -57.5 ng/mL. The “IGF-II % change from pre-dose” value ([4]; Day 28) was “(−5%)”, the “IGF-II mean change from pre-dose” value ([4]; Day 28) was -29.2 ng/mL and the “injection site reactions, number of events” value [5] was “adverse events were injection site reactions (13)”. For the same substance, the “number of treatment-emergent adverse events (TEAE)” value [5] was “There were 24 treatment-emergent adverse events (TEAE) in Stage A (19 in the 16 ATL1103-treated”, the “overall safety and tolerability” value [5] was “ATL1103 was considered safe and generally well tolerated at the doses used in the study” and the “pain at injection site, number of events” value [5] was “treated subjects most common adverse events reported were pain at injection site (6), headache”. For the same substance, the “severity of TEAE” value [5] was “subjects, 5 in the 8 placebo-treated subjects), all reported as mild or moderate. In the ATL1103-”, the “severity of all adverse events” value [5] was “mild to moderate” and the “reduction in mean sIGF-I levels” value ([6]; 200 mg per week dose, week 14) was “no consistent reduction”. For the same substance, the “mean reduction in sIGF-I compared to baseline” value ([6]; 400 mg per week (twice weekly 200 mg), 4 patients with acromegaly, week 14) was 30%, the “mean reduction in sIGF-I compared to baseline” value ([6]; 400 mg per week, 3 patients with lower body weights (58-83 kg, below 85 kg), approx. 4.8-6.9 mg/kg, week 14) was 38% and the “range of sIGF-I reduction” value ([6]; 400 mg per week, 3 patients with lower body weights, week 14) was 28-48%. The “time course of sIGF-I (FIG. 1)” value ([6]; twice weekly 200 mg (400 mg per week), over the dosing period) was “progressive rate of reduction”, the “Serum IGF-I change from pre-dose, Mean ± SD” value (from here on “Serum IGF-I change … Mean ± SD”) (IGF-I; Stage B, 250 mg multiple dose, Day 3) was “+2.65 ± 9.47 nmol/L” and the “trend of serum IGF-I levels versus baseline” value (IGF-I; Stage B, from day 14 on, listed as ATL1103) was “trend in reduction in IGF-I levels from day 14 to day 28; also recorded: For IGF-I there was a clear trend for mean levels to be lower than baseline on days D14, 21, 28, 35 of”. The “Serum IGF-I % change from pre-dose” value (IGF-I; Stage B, Day 3) was 12%, the “Serum IGF-I % change from pre-dose” value (IGF-I; Stage B, Day 5) was 6% and the “Serum IGF-I change … Mean ± SD” value (IGF-I; Stage B, Day 5) was “+0.32 ± 7.42 nmol/L”. The “Serum IGF-I % change from pre-dose” value (IGF-I; Stage B, Day 7) was 6%, the “Serum IGF-I change … Mean ± SD” value (IGF-I; Stage B, Day 7) was “+0.77 ± 7.51 nmol/L” and the “Serum IGF-I % change from pre-dose” value (IGF-I; Stage B, Day 14) was −2%. For the same substance, the “Serum IGF-I change … Mean ± SD” value (IGF-I; Stage B, Day 14) was -1.43 ± 7.19 nmol/L, the “Serum IGF-I % change from pre-dose” value (IGF-I; Stage B, Day 21) was −7% and the “Serum IGF-I change … Mean ± SD” value (IGF-I; Stage B, Day 21) was -3.40 ± 3.59 nmol/L. For the same substance, the “Serum IGF-I % change from pre-dose” value (IGF-I; Stage B, Day 28) was −7%, the “Serum IGF-I change … Mean ± SD” value (IGF-I; Stage B, Day 28) was -3.43 ± 7.53 nmol/L and the “Serum IGF-I % change from pre-dose” value (IGF-I; Stage B, Day 35) was −1%. For the same substance, the “Serum IGF-I change … Mean ± SD” value (IGF-I; Stage B, Day 35) was -1.9 ± 5.08 nmol/L, the “reduction in mean IGF-I levels versus baseline” value (IGF-I; day 21, p=0.034 one sided t-test) was 7% and the “effect on GH levels” value (growth hormone (GH)) was “no effect; also recorded: No treatment-related effects were apparent in growth hormone levels (data not shown)”. The “reduction of liver GHr RNA” value (liver GHr RNA; [10]) was 99%, the “reduction of liver GHr RNA” value (liver GHr RNA; [11]) was 99.7% and the “headache, number of events” value ([7]; Stage A, ATL1103-treated subjects) was 5. For the same substance, the “influenza-like illness, number of events” value ([7]; Stage A, ATL1103-treated subjects (after single doses of 400 mg)) was 2, the influenza-like illness ([7]; after repeated doses of 250 mg) was “single doses of 400 mg ATL1103, this was not seen after repeated doses of 250 mg” and the “effect on ALS” value ([8]; Phase I multiple dose stage) was “significantly reduced”. For the same substance, the “ALS % change from pre-dose” value ([8]; Day 7) was “(−5%)”, the “ALS mean change from pre-dose” value ([8]; Day 7) was −115.3 mU/ml and the “ALS % change from pre-dose” value ([8]; Day 21) was “(−9%)”. The “ALS mean change from pre-dose” value ([8]; Day 21) was −160.7 mU/ml, the “ALS % change from pre-dose” value ([8]; Day 28) was “(−10%)” and the “ALS mean change from pre-dose” value ([8]; Day 28) was −188.7* mU/ml. For the same substance, the “GHBP % change from pre-dose” value ([9]; Day 7) was “(0%)”, the “GHBP mean change from pre-dose” value ([9]; Day 7) was -31.2 pmol/L and the “GHBP % change from pre-dose” value ([9]; Day 21) was “(−16%)”. For the same substance, the “GHBP mean change from pre-dose” value ([9]; Day 21) was −169.5** pmol/L, the “GHBP % change from pre-dose” value ([9]; Day 28) was “(−19%)” and the “GHBP mean change from pre-dose” value ([9]; Day 28) was −233.3* pmol/L. The “reduction of GHBP” value ([9]; day 21, p=0.007) was 16% and the “reduction of GHBP” value ([9]; day 28, one week past the last dose, p<0.05) was 19%.
